Measurements as given in PubChem BioAssay AID1845199 (Molecular Pharmacology Branch, DTP, NCI, 2023).

System: 556581-035-R-J1 tumor spheroid viability, % test/control
Experiment: Anticancer human tumor 556581-035-R-J1 patient-derived ovarian carcinoma cell line growth inhibition
Conditions: spheroids with HUVEC and MSC; for IC50: curve of first compound; for viability, T/C: stronger effect = lower value
Text: Multicellular complex tumor spheroid response to DNA repair inhibitors in combination with DNA-damaging drugs
This study explores the anticancer activities of DNA-damaging drugs and inhibitors of DNA damage repair, both as single agents and in combinations. Complex tumor spheroids comprised of malignant cells, endothelial cells and mesenchymal stem cells served as an in vitro model for human solid tumors. This model system incorporates physiologically relevant features and patient-derived or established malignant cell lines with clinically relevant genetic alterations from many tumor types. Twenty-six patient-derived or established malignant cell lines were evaluated representing sarcoma, melanoma, small cell lung cancer (SCLC), non-small cell lung cancer (NSCLC), as well as bladder, ovarian and pancreatic cancers. The concentration ranges selected for each drug and investigational agent were based upon clinically achievable concentrations if the clinical Cmax of the agent was known.
Compounds. The drugs and compounds olaparib (NSC753686), talazoparib (NSC767125), berzosertib (NSC777718), elimusertib (NSC800525), nedisertib (NSC802822), VX-984 (NSC792969), AZD-1390 (NSC803789), temozolomide (NSC362856), topotecan (NSC609699), trabectedin (NSC813783), staurosporine (NSC755774), and gemcitabine (NSC613327) were obtained from the National Cancer Institute (NCI) Developmental Therapeutics Program Chemical Repository. The FDA-approved anticancer drug set is available from the Developmental Therapeutics Program at https://dtp.cancer.gov/organization/dscb/obtaining/available_plates.htm. […] The stock solutions were prepared in dimethyl sulfoxide (DMSO, Sigma-Aldrich, St. Louis, MO, cat. D2650) at 400-fold the tested concentration and stored at -70 degrees C. Prior to their use, the stock solutions were diluted in fresh medium and the final DMSO concentration in the assay was 0.25% (v/v). All drugs and investigational agents were tested over a range starting from a high concentration at or near the clinical Cmax and decreasing in half-log increments. If the clinical Cmax for an agent had not been determined, the highest concentration tested was 10 microM.
Cell Lines. The patient-derived cancer cell (PDC) lines: 156681-154-R-J1-PDC, 283228-195-R-J1-PDC, 287954-098-R-J1-PDC, 292921-168-R-J2-PDC, 349418-098-R-PDC, 425362-245-T-J1-PDC, 556581-035-R-J1-PDC, and BL0293-F563-PDC were received from the NCI Patient-Derived Models Repository (PDMR, https://pdmr.cancer.gov). The established cell lines HS-SY-2 (RRID:CVCL_8719), MPNST, and SYO-1 (RRID:CVCL_7146) were obtained from the Sloan Kettering Institute. The alveolar soft parts sarcoma cell line ASPS-1 (RRID:CVCL_S738) was established at the NCI and grown from internal seed stocks. The following established cell lines were purchased from the American Type Culture Collection (ATCC, Manassas, VA): G-401 (ATCC, cat. CRL-1441, RRID:CVCL_0270), SW982 (ATCC, cat. HTB-93, RRID:CVCL_1734), VA-ES-BJ (ATCC, cat. CRL-2138, RRID:CVCL_1785), NCI-H719 (ATCC, cat. CRL-5837, RRID:CVCL_1582), NCI-H196 (ATCC, cat. CRL-5823, RRID:CVCL_1509), NCI-H841 (ATCC, cat. CRL-5845, RRID:CVCL_1595), NCI-H1618 (ATCC, cat. CRL-5879, RRID:CVCL_1480), NCI-H1876 (ATCC, cat. CRL-5902, RRID:CVCL_1503), DMS 114 (ATCC, cat. CRL-2066; RRID:CVCL_1174), NCI-H211 (ATCC, cat. CRL-5824; RRID:CVCL_1529), and SW 1271 (ATCC, cat. CRL-2177, RRID:CVCL_1716). The small cell lung cancer cell line COR-L88 was purchased from Sigma-Aldrich (cat. 92031917-1VL, RRID:CVCL_1141). The non-small cell lung cancer cell lines NCI-H226 (RRID:CVCL_1544) and NCI-H322M (RRID:CVCL_1557) were established at the NCI and grown from internal seed stocks. Pooled donor human umbilical vein endothelial cells (HUVEC, Lonza, cat. CC-2519) and human mesenchymal stem cells (hMSC, Lonza, cat. PT-2501) were purchased from Lonza (Walkersville, MD).
Cell Culture. All cells were maintained in an incubator at 37 degrees C and 5% CO2 with 95% humidity. […]

[1] = second compound 0.003 µM, first compound 0.00949 µM
[2] = second compound 0.003 µM, first compound 0.03 µM
[3] = second compound 0.003 µM, first compound 0.0949 µM
[4] = second compound 0.003 µM, first compound 0.3 µM
[5] = second compound 0.003 µM, first compound 0.949 µM
[6] = second compound 0.003 µM, first compound 3 µM
[7] = second compound 0.00949 µM, first compound 0.00949 µM
[8] = second compound 0.00949 µM, first compound 0.03 µM
[9] = second compound 0.00949 µM, first compound 0.0949 µM
[10] = second compound 0.00949 µM, first compound 0.3 µM
[11] = second compound 0.00949 µM, first compound 0.949 µM
[12] = second compound 0.00949 µM, first compound 3 µM
[13] = second compound 0.03 µM, first compound 0.00949 µM
[14] = second compound 0.03 µM, first compound 0.03 µM
[15] = second compound 0.03 µM, first compound 0.0949 µM
[16] = second compound 0.03 µM, first compound 0.3 µM
[17] = second compound 0.03 µM, first compound 0.949 µM
[18] = second compound 0.03 µM, first compound 3 µM
[19] = second compound 0.0949 µM, first compound 0.00949 µM
[20] = second compound 0.0949 µM, first compound 0.03 µM
[21] = second compound 0.0949 µM, first compound 0.0949 µM
[22] = second compound 0.0949 µM, first compound 0.3 µM
[23] = second compound 0.0949 µM, first compound 0.949 µM
[24] = second compound 0.0949 µM, first compound 3 µM
[25] = second compound 0.3 µM, first compound 0.00949 µM
[26] = second compound 0.3 µM, first compound 0.03 µM
[27] = second compound 0.3 µM, first compound 0.0949 µM
[28] = second compound 0.3 µM, first compound 0.3 µM
[29] = second compound 0.3 µM, first compound 0.949 µM
[30] = second compound 0.3 µM, first compound 3 µM
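Further: spheroids exposed to compounds for 7 days before viability read.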

| SMILES | IC50 (second compound 0.003 µM) [nM] | IC50 (second compound 0.00949 µM) [nM] | IC50 (second compound 0.03 µM) [nM] | IC50 (second compound 0.0949 µM) [nM] | IC50 (second compound 0.3 µM) [nM] | viability, T/C [3] [%] | viability, T/C [4] [%] | viability, T/C [5] [%] | viability, T/C [6] [%] | viability, T/C [9] [%] | viability, T/C [10] [%] | viability, T/C [11] [%] | viability, T/C [12] [%] | viability, T/C [15] [%] | viability, T/C [16] [%] | viability, T/C [17] [%] | viability, T/C [18] [%] | viability, T/C [21] [%] | viability, T/C [22] [%] | viability, T/C [23] [%] | further results |
| --- | --- | --- | --- | --- | --- | --- | --- | --- | --- | --- | --- | --- | --- | --- | --- | --- | --- | --- | --- | --- | --- |
| CNCc1ccc(-c2cc(-c3nc(-c4ccc(S(=O)(=O)C(C)C)cc4)cnc3N)on2)cc1 + CC[C@@]1(O)C(=O)OCc2c1cc1n(c2=O)Cc2cc3c(CN(C)C)c(O)ccc3nc2-1 | 1380 | 1170 | 854 | 270 | < 9.49 | 100 | 104 | 67.6 | 13.7 | 87.1 | 93.6 | 59 | 9.61 | 92.4 | 75 | 47.8 | 9.43 | 59 | 47.6 | 31.3 | viability, T/C [1]: 101%; viability, T/C [2]: 94.6%; viability, T/C [7]: 88.7%; viability, T/C [8]: 90.5%; viability, T/C [13]: 83.7%; viability, T/C [14]: 84.7%; viability, T/C [19]: 64.4%; viability, T/C [20]: 67%; viability, T/C [24]: 1.58%; viability, T/C [25]: 16.8%; viability, T/C [26]: 15.9%; viability, T/C [27]: 14.3%; viability, T/C [28]: 11.8%; viability, T/C [29]: 8.45%; viability, T/C [30]: 0.85% |
| Cn1ncnc1[C@H]1c2n[nH]c(=O)c3cc(F)cc(c23)N[C@@H]1c1ccc(F)cc1 + CC[C@@]1(O)C(=O)OCc2c1cc1n(c2=O)Cc2cc3c(CN(C)C)c(O)ccc3nc2-1 | > 3000 | > 3000 | 1300 | 67.5 | < 9.49 | 93.2 | 94.3 | 71.1 | 57.1 | 82.2 | 71.4 | 68.5 | 49.4 | 63.2 | 64.9 | 52.9 | 39.8 | 45 | 44.2 | 36.2 | viability, T/C [1]: 105%; viability, T/C [2]: 97.7%; viability, T/C [7]: 88.2%; viability, T/C [8]: 81.7%; viability, T/C [13]: 70%; viability, T/C [14]: 67.2%; viability, T/C [19]: 57.9%; viability, T/C [20]: 51.3%; viability, T/C [24]: 19.2%; viability, T/C [25]: 13.2%; viability, T/C [26]: 13.1%; viability, T/C [27]: 12.7%; viability, T/C [28]: 11%; viability, T/C [29]: 9.44%; viability, T/C [30]: 6.18% |
| O=C(c1cc(Cc2n[nH]c(=O)c3ccccc23)ccc1F)N1CCN(C(=O)C2CC2)CC1 + CC[C@@]1(O)C(=O)OCc2c1cc1n(c2=O)Cc2cc3c(CN(C)C)c(O)ccc3nc2-1 | > 30000 | > 30000 | > 30000 | 6480 | < 94.9 | 103 | 104 | 103 | 95.4 | 93 | 95.8 | 92.7 | 86.9 | 74.8 | 77.9 | 75.7 | 72.9 | 57.2 | 58.2 | 58.3 | viability, T/C (second compound 0.003 µM, first compound 9.49 µM): 83.3%; viability, T/C (second compound 0.003 µM, first compound 30 µM): 68.5%; viability, T/C (second compound 0.00949 µM, first compound 9.49 µM): 77.7%; viability, T/C (second compound 0.00949 µM, first compound 30 µM): 68%; viability, T/C (second compound 0.03 µM, first compound 9.49 µM): 63.7%; viability, T/C (second compound 0.03 µM, first compound 30 µM): 55.1%; viability, T/C [24]: 53.4%; viability, T/C (second compound 0.0949 µM, first compound 9.49 µM): 47.2%; viability, T/C (second compound 0.0949 µM, first compound 30 µM): 38.6%; viability, T/C [27]: 16.4%; viability, T/C [28]: 17.7%; viability, T/C [29]: 15%; viability, T/C [30]: 14.6%; viability, T/C (second compound 0.3 µM, first compound 9.49 µM): 12.4%; viability, T/C (second compound 0.3 µM, first compound 30 µM): 12.9% |
